Experimental findings from patent publication US12509460B2 (Skyhawk Therapeutics, Inc., priority 2019, dated 2025) are described below.

pEC50: −log10 of the molar value.

The subject of data set [1] is SMN FL and SMN Δ7 in spinal muscular atrophy (SMA) patient fibroblasts (GM03813, Coriell). Put plainly: Quantitative splicing assay (SMN), qPCR. Format: cell-based, human. The settings on record: Homo sapiens, Fibroblast, 24 h, SMA patient fibroblasts GM03813, 24 h, qPCR; read-out: SMN2 Splicing FL EC50. The procedure:
Spinal muscular atrophy (SMA) patient fibroblasts (GM03813, Coriell) are plated in 96-well plates at 50,000 cells/well. […] Treated cells are lysed and cDNA synthesized using the Fast Advanced Cells-to-Ct kit (Thermofisher A35378) according to the manufacturer's instructions. 2 μL of each cDNA are used in qPCR reactions. […] Reactions are run in a Quant Studio 6 qPCR instrument with default settings.

In data set [2] the test system is SMN protein in spinal muscular atrophy (SMA) patient fibroblasts (GM03813, Coriell). Put plainly: SMN protein assay, Mesoscale Discovery (MSD). Format: cell-based, human. The settings on record: SMA patient fibroblasts GM03813, 48 hours, MSD; read-out: SMN2 protein EC50. In outline: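 Absolute SMN levels were quantified by MSD against an SMN protein standard curve (1 μg/ml to 19.5 pg/ml) run on each plate. Samples were lysates of GM03813 patient fibroblasts (7000 cells/well) treated 48 hours with compound doses from 2.5 μM down to 0.6 nM.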

In data set [3] the test system is MDR1. Put plainly: Blood-brain-barrier (BBB) penetration potential via MDCK-MDR1 permeability assay. As to conditions: dog, MDCK-MDR1, pH 7.4, MDCK-MDR1: Efflux, efflux ratio.
For data set [4], the system named is MDR1-MDCK cell monolayers. The description is as above. As to conditions: for MDCK-MDR1: % Recov A-B: A-B direction; for MDCK-MDR1: % Recov B-A: B-A direction.
The test system of data set [5] is MDR1 (P-gp). The data set is described as above. As to conditions: dog; for Papp A→B at 120 min, 5 μM: MDCK-MDR1, pH 7.4, MDCK-MDR1: Papp A-B, A-B direction; for Papp B→A at 120 min, 5 μM: MDCK-MDR1, pH 7.4, MDCK-MDR1: Papp B-A, B-A direction.
Data set [6] relates to mHTT protein in GM04724 (CAG 70/20) Huntington's disease patient lymphoblast cells. Briefly: mHTT protein assay, 2B7-MW1 assay via Mesoscale Discovery (MSD). Format: cell-based, human. The settings on record: GM04724 Huntington's disease patient lymphoblasts. In outline: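 Signal from the 2B7-MW1 antibody pair on MSD, rising with polyQ length and smaller HTT fragments, measured mHTT after 48 h compound exposure (0.6 nM–10 μM) in GM04724 cells. A parallel replicate plate gave CellTiter Glo viability.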

Data set [7] is described as follows: Quantitative splicing assay (HTT), qPCR. Format: cell-based, human. As to conditions: Homo sapiens, GM04724, 24 h, GM04724 lymphoblasts, qPCR, read-out: HTT Splicing: E49-50 EC50. The procedure, abridged: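 TaqMan qPCR on cell-lysate cDNA quantifies cryptic-exon inclusion from HTT intron 49. Lymphoblasts plated at 50,000 cells/well had received compound for 24 h, 0.15 nM-2.5 uM range, 0.1% DMSO.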

Consider `CN(c1ccc(-c2cc3cncnc3cc2O)nn1)[C@H]1C[C@@H]2CC[C@@H](N2)[C@H]1F` [Compound 75B, 6-(6-(((1R,2R,3S,5S)-2-fluoro-8-azabicyclo[3.2.1]octan-3-yl)(methyl)amino)pyridazin-3-yl)quinazolin-7-ol], for which the negative-log EC50 (pEC50) in data set [1] is 7.30 to 7.80; in data set [2] it was 7.30 to 7.80; in data set [6], 7.00 to 7.29; in data set [7] it was 7.00 to 7.29. In addition, in data set [3], the efflux ratio at 120 min, 5 μM was found to be 21. Further, the “MDCK-MDR1: % Recov A-B” value in data set [4] was 88%. In addition, the “MDCK-MDR1: % Recov B-A” value in data set [4] was found to be 90%. Also, the Papp A→B at 120 min, 5 μM in data set [5] amounted to 2.44 ×10⁻⁶ cm/s. The compound also yielded a Papp B→A at 120 min, 5 μM in data set [5] of 50.5 ×10⁻⁶ cm/s.

`CN(c1ccc(-c2cc3cnn(C)c3cc2O)nn1)[C@@H]1C[C@H]2CC[C@H](N2)[C@@H]1F` [Compound 76A, 5-(6-(((1S,2S,3R,5R)-2-fluoro-8-azabicyclo[3.2.1]octan-3-yl)(methyl)amino)pyridazin-3-yl)-1-methyl-1H-indazol-6-ol]: the pEC50 in data set [1] was 6.30 to 7.00; in data set [2] it was 7.30 to 7.80; in data set [6], 7.30 to 7.80; in data set [7], 6.30 to 7.00. Further, in data set [3], the efflux ratio at 120 min, 5 μM was 12. In data set [4], the “MDCK-MDR1: % Recov A-B” value was 83%. Besides, the “MDCK-MDR1: % Recov B-A” value in data set [4] is 88%. Moreover, the Papp A→B at 120 min, 5 μM in data set [5] is 5.55 ×10⁻⁶ cm/s. Besides, the Papp B→A at 120 min, 5 μM in data set [5] turned out to be 69.2 ×10⁻⁶ cm/s.

Consider `CN(c1ccc(-c2cc3cnn(C)c3cc2O)nn1)[C@H]1C[C@@H]2CC[C@@H](N2)[C@H]1F` [Compound 76B, 5-(6-(((1R,2R,3S,5S)-2-fluoro-8-azabicyclo[3.2.1]octan-3-yl)(methyl)amino)pyridazin-3-yl)-1-methyl-1H-indazol-6-ol], for which the pEC50 in data set [1] was 7.30 to 7.80; in data set [2], 7.82 to 11.00; in data set [6], 7.82 to 11.00; in data set [7] it was 7.30 to 7.80. Moreover, the efflux ratio at 120 min, 5 μM in data set [3] was 15. Further, the “MDCK-MDR1: % Recov A-B” value in data set [4] came to 84%. Besides, in data set [4], the “MDCK-MDR1: % Recov B-A” value came out at 93%. In data set [5], this compound returned a Papp A→B at 120 min, 5 μM of 3.97 ×10⁻⁶ cm/s. The compound further gave a Papp B→A at 120 min, 5 μM in data set [5] of 60.3 ×10⁻⁶ cm/s.

Regarding `CN(c1ccc(-c2cc3ncccc3cc2O)nn1)[C@@H]1C[C@H]2CCC[C@H](N2)[C@@H]1F` [Compound 78A, 7-(6-(((1S,2S,3R,5R)-2-fluoro-9-azabicyclo[3.3.1]nonan-3-yl)(methyl)amino)pyridazin-3-yl)quinolin-6-ol], the pEC50 in data set [1] is 7.00 to 7.29; in data set [2], 7.30 to 7.80; in data set [6], 7.30 to 7.80; in data set [7], 7.30 to 7.80. Moreover, in data set [3], the efflux ratio at 120 min, 5 μM amounted to 23. Also, the “MDCK-MDR1: % Recov A-B” value in data set [4] came out at 74%. Further, in data set [4], the “MDCK-MDR1: % Recov B-A” value worked out at 89%. The Papp A→B at 120 min, 5 μM in data set [5] was determined as 2.19 ×10⁻⁶ cm/s. In addition, the Papp B→A at 120 min, 5 μM in data set [5] worked out at 50.5 ×10⁻⁶ cm/s.

With `CN(c1ccc(-c2cc3ncccc3cc2O)nn1)[C@H]1C[C@@H]2CCC[C@@H](N2)[C@H]1F` [Compound 78B, 7-(6-(((1R,2R,3S,5S)-2-fluoro-9-azabicyclo[3.3.1]nonan-3-yl)(methyl)amino)pyridazin-3-yl)quinolin-6-ol], the pEC50 in data set [1], in data set [2], in data set [6] and in data set [7] was 7.82 to 11.00 each time. Moreover, the efflux ratio at 120 min, 5 μM in data set [3] came out at 12. Further, the “MDCK-MDR1: % Recov A-B” value in data set [4] is given as 73%. Also, the “MDCK-MDR1: % Recov B-A” value in data set [4] was 79%. In data set [5], the Papp A→B at 120 min, 5 μM turned out to be 4.03 ×10⁻⁶ cm/s. In addition, in data set [5], the Papp B→A at 120 min, 5 μM turned out to be 50.3 ×10⁻⁶ cm/s.

Take `CN(c1ccc(-c2cc3c(=O)n(C)ccc3cc2O)nn1)[C@@H]1C[C@H]2CC[C@H](N2)[C@@H]1F` [Compound 83A, 7-(6-(((1S,2S,3R,5R)-2-fluoro-8-azabicyclo[3.2.1]octan-3-yl)(methyl)amino)pyridazin-3-yl)-6-hydroxy-2-methylisoquinolin-1(2H)-one]: the pEC50 in data set [1], in data set [2], in data set [6] and in data set [7] was 7.82 to 11.00 each time. Besides, the efflux ratio at 120 min, 5 μM in data set [3] is 44. The “MDCK-MDR1: % Recov A-B” value in data set [4] turned out to be 89%. In addition, the “MDCK-MDR1: % Recov B-A” value in data set [4] was determined as 83%. Besides, in data set [5], the Papp A→B at 120 min, 5 μM is 0.98 ×10⁻⁶ cm/s. The same compound came in with a Papp B→A at 120 min, 5 μM in data set [5] of 43.5 ×10⁻⁶ cm/s.

Take `CN(c1ccc(-c2cc3c(=O)n(C)ccc3cc2O)nn1)[C@H]1C[C@@H]2CC[C@@H](N2)[C@H]1F` [Compound 83B, 7-(6-(((1R,2R,3S,5S)-2-fluoro-8-azabicyclo[3.2.1]octan-3-yl)(methyl)amino)pyridazin-3-yl)-6-hydroxy-2-methylisoquinolin-1(2H)-one]: the negative-log EC50 (pEC50) in data set [1], in data set [2], in data set [6] and in data set [7] was 7.82 to 11.00 each time. Further, the efflux ratio at 120 min, 5 μM in data set [3] worked out at 31. The “MDCK-MDR1: % Recov A-B” value in data set [4] worked out at 77%. Moreover, in data set [4], the “MDCK-MDR1: % Recov B-A” value was found to be 72%. The Papp A→B at 120 min, 5 μM in data set [5] turned out to be 1.43 ×10⁻⁶ cm/s. The Papp B→A at 120 min, 5 μM in data set [5] was found to be 44.4 ×10⁻⁶ cm/s.

For the compound `CN(c1ccc(-c2cc3ccn(C)c(=O)c3cc2O)nn1)[C@@H]1C[C@H]2CC[C@H](N2)[C@@H]1F` [Compound 84A, 6-(6-(((1S,2S,3R,5R)-2-fluoro-8-azabicyclo[3.2.1]octan-3-yl)(methyl)amino)pyridazin-3-yl)-7-hydroxy-2-methylisoquinolin-1(2H)-one], the negative logarithm of the EC50 (pEC50) was 7.30 to 7.80 in data set [1], 7.82 to 11.00 in data set [2], 7.82 to 11.00 in data set [6] and 7.30 to 7.80 in data set [7]. Moreover, in data set [3], the efflux ratio at 120 min, 5 μM was 58. In data set [4], the “MDCK-MDR1: % Recov A-B” value amounted to 92%. For the same compound, the “MDCK-MDR1: % Recov B-A” value in data set [4] is listed as 90%. Moreover, in data set [5], the Papp A→B at 120 min, 5 μM was 0.9 ×10⁻⁶ cm/s. Also, in data set [5], the Papp B→A at 120 min, 5 μM turned out to be 52 ×10⁻⁶ cm/s.

For `CN(c1ccc(-c2cc3ccn(C)c(=O)c3cc2O)nn1)[C@H]1C[C@@H]2CC[C@@H](N2)[C@H]1F` [Compound 84B, 6-(6-(((1R,2R,3S,5S)-2-fluoro-8-azabicyclo[3.2.1]octan-3-yl)(methyl)amino)pyridazin-3-yl)-7-hydroxy-2-methylisoquinolin-1(2H)-one], the pEC50 in data set [1], in data set [2], in data set [6] and in data set [7] was 7.82 to 11.00 in each case. Moreover, in data set [3], the efflux ratio at 120 min, 5 μM amounted to 48. Also, in data set [4], the “MDCK-MDR1: % Recov A-B” value is on record as 112%. Further, in data set [4], the “MDCK-MDR1: % Recov B-A” value is 76%. The same compound showed an apical-to-basolateral permeability (Papp A→B) at 120 min, 5 μM in data set [5] of 1.06 ×10⁻⁶ cm/s. This compound also gave a Papp B→A at 120 min, 5 μM in data set [5] of 50.9 ×10⁻⁶ cm/s.

In the case of `CN(c1ccc(-c2cc3c(=O)n(C)cnc3cc2O)nn1)[C@@H]1C[C@H]2CC[C@H](N2)[C@@H]1F` [Compound 85A, 6-(6-(((1S,2S,3R,5R)-2-fluoro-8-azabicyclo[3.2.1]octan-3-yl)(methyl)amino)pyridazin-3-yl)-7-hydroxy-3-methylquinazolin-4(3H)-one], the pEC50 in data set [1] was 7.30 to 7.80; in data set [2], 7.82 to 11.00; in data set [6], 7.82 to 11.00; in data set [7], 7.30 to 7.80. For the same compound, in data set [3], the efflux ratio at 120 min, 5 μM is 74. Further, the “MDCK-MDR1: % Recov A-B” value in data set [4] is listed as 99%. Besides, the “MDCK-MDR1: % Recov B-A” value in data set [4] worked out at 99%. This compound came in with a Papp A→B at 120 min, 5 μM in data set [5] of 0.67 ×10⁻⁶ cm/s. This compound also came in with a Papp B→A at 120 min, 5 μM in data set [5] of 49.2 ×10⁻⁶ cm/s.
